pKd: −log10 of the molar value. Where only a bound is given, the exact number is not on record here.

The first assay has as its target T1, FLT3 N841I (Homo sapiens, UniProt P36888, N841I).
T1 sequence (P36888 27-993 N841I): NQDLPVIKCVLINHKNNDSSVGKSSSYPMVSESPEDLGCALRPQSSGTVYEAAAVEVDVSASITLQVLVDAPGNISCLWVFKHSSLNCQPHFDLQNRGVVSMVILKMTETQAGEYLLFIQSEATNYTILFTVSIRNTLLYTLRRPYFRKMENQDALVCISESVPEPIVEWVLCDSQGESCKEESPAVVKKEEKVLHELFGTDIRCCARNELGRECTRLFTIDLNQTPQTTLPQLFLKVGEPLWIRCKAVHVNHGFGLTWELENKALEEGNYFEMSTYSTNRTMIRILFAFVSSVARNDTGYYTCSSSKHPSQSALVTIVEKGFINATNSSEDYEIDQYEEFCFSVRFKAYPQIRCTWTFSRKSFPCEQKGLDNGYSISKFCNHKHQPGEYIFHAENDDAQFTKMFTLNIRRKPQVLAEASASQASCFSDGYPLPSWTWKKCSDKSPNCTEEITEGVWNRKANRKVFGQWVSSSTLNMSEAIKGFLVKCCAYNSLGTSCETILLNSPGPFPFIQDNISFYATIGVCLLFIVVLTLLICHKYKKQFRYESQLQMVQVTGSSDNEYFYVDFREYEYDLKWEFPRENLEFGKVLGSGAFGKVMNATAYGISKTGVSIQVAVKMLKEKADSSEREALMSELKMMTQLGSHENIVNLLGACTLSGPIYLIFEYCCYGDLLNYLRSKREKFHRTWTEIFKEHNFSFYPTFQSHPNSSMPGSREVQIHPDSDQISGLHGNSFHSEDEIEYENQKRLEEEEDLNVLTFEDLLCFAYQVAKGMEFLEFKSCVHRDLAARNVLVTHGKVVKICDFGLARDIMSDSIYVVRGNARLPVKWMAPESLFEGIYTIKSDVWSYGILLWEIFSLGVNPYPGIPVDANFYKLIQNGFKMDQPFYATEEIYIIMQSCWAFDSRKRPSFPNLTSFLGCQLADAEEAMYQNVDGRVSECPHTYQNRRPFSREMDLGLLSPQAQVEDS
Kind of assay: DiscoverX KINOMEscan active site-directed competition binding, FLT3 N841I. Conditions: Table 13; no ATP.
Description: (§1) Kinase binding data were obtained for various exemplary compounds prepared according to Examples 1-8 using the DiscoverX KINOMEscan® active site-directed competition binding site-directed assay protocol described below. […] As a result, the data report thermodynamic interaction affinities (Kd values), rather than IC50 values that are dependent on ATP concentrations. The assay uses a DNA-tagged version of the protein kinase, and an immobilized ligand bound to a solid support. Compounds that directly or indirectly prevent kinase binding to the immobilized ligand reduce the amount of kinase captured on the solid support, which is detected using an ultra-sensitive qPCR method. Affinity constants reported from the assay have been reported to be independent of the immobilized ligand used that is coupled to the solid support (See supplemental information in Fabian, M. A. et. al., (2005) Nat. Biotechnol. 23, 329-336; Wodicka, L. M. et. al., (2010) Chem. Biol. 17, 1241-1249.)
Kinase-tagged T7 phage strains were prepared in an E. coli host derived from the BL21 strain. E. coli were grown to log-phase and infected with T7 phage and incubated with shaking at 32 °C until lysis. The lysates were centrifuged and filtered to remove cell debris. The remaining kinases were produced in HEK-293 cells and subsequently tagged with DNA for qPCR detection. Streptavidin-coated magnetic beads were treated with biotinylated small molecule ligands for 30 minutes at room temperature to generate affinity resins for kinase assays. The liganded beads were blocked with excess biotin and washed with blocking buffer (SeaBlock (Pierce), 1% BSA, 0.05% Tween 20, 1 mM DTT) to remove unbound ligand and to reduce non-specific binding. […] Test compounds were prepared as 111x stocks in 100% DMSO. Kds were determined using an 11-point 3-fold compound dilution series with three DMSO control points. All compounds for Kd measurements are distributed by acoustic transfer (non-contact dispensing) in 100% DMSO. The compounds were then diluted directly into the assays such that the final concentration of DMSO was 0.9%. All reactions were performed in polypropylene 384-well plates. Each was a final volume of 0.02 mL. The assay plates were incubated at room temperature with shaking for 1 hour and the affinity beads were washed with wash buffer (1×PBS, 0.05% Tween 20). The beads were then re-suspended in elution buffer (1×PBS, 0.05% Tween 20, 0.5 μM nonbiotinylated affinity ligand) and incubated at room temperature with shaking for 30 minutes. The kinase concentration in the eluates was measured by qPCR. Binding constants (Kds) were calculated with a standard dose-response curve using the Hill equation. The Hill Slope was set to −1. Curves were fitted using a non-linear least square fit with the Levenberg-Marquardt algorithm.
as §1, with “9-12” for “1-8”
Kinase-tagged T7 phage strains were prepared in an E. coli host derived from the BL21 strain. […]
`COc1cn2ncc(-c3nc(N[C@H]4CNCC[C@@H]4F)c(C#N)cc3F)c2nc1C1CC1` [Compound 7, 6-(5-cyclopropyl-6-methoxypyrazolo[1,5-a]pyrimidin-3-yl)-5-fluoro-2-(((3S,4S)-4-fluoropiperidin-3-yl)amino)nicotinonitrile] gave a pKd of over 9.77.
As to `COc1cn2ncc(-c3nc(N[C@H]4CNCC[C@@H]4F)c(C#N)cc3F)c2nc1C(C)(C)O` [Compound 10, 5-fluoro-2-(((3S,4S)-4-fluoropiperidin-3-yl)amino)-6-(5-(2-hydroxypropan-2-yl)-6-methoxypyrazolo[1,5-a]pyrimidin-3-yl)nicotinonitrile], the negative logarithm of the Kd (pKd) was 9.32.
As to `COc1cn2ncc(-c3nc(N[C@H]4CNCC[C@@H]4F)c(F)cc3F)c2nc1C(C)(C)O` [Compound 13, 2-(3-(3,5-difluoro-6-(((3S,4S)-4-fluoropiperidin-3-yl)amino)pyridin-2-yl)-6-methoxypyrazolo[1,5-a]pyrimidin-5-yl)propan-2-ol], the negative-log Kd (pKd) is 9.10.

The same assay, now with this note: Table 19; no ATP.
Regarding `COc1cn2ncc(-c3nc(N[C@H]4CNCC[C@@H]4F)ncc3F)c2nc1C(C)(C)O` [Compound 6a, 2-(3-(5-fluoro-2-(((3S,4S)-4-fluoropiperidin-3-yl)amino)pyrimidin-4-yl)-6-methoxypyrazolo[1,5-a]pyrimidin-5-yl)propan-2-ol], the negative-log Kd (pKd) was 9.15.
The compound `COc1cn2ncc(-c3ccnc(N[C@H]4CNCC[C@@H]4F)n3)c2nc1C1CC1` [Compound 7a, 4-(5-cyclopropyl-6-methoxypyrazolo[1,5-a]pyrimidin-3-yl)-N-((3S,4S)-4-fluoropiperidin-3-yl)pyrimidin-2-amine] had a pKd of 9.21.
As for `COc1cn2ncc(-c3cncc(N[C@H]4CNCC[C@@H]4F)n3)c2nc1C1CC1` [Compound 12a, 6-(5-cyclopropyl-6-methoxypyrazolo[1,5-a]pyrimidin-3-yl)-N-((3S,4S)-4-fluoropiperidin-3-yl)pyrazin-2-amine], the negative-log Kd (pKd) was 9.57.
As to `COc1cn2ncc(-c3nc(N[C@@H]4CCCNC4)ncc3F)c2nc1C1CC1` [Compound 14a, (R)-4-(5-cyclopropyl-6-methoxypyrazolo[1,5-a]pyrimidin-3-yl)-5-fluoro-N-(piperidin-3-yl)pyrimidin-2-amine], the negative logarithm of the Kd (pKd) was over 9.77.
`COc1cn2ncc(-c3nc(N[C@H]4CNCC[C@@H]4F)ncc3F)c2nc1C1CC1` [Compound 15a, 4-(5-cyclopropyl-6-methoxypyrazolo[1,5-a]pyrimidin-3-yl)-5-fluoro-N-((3S,4S)-4-fluoropiperidin-3-yl)pyrimidin-2-amine]: the negative logarithm of the Kd (pKd) is over 9.77.
